Test results published in patent EP1136554A1, “ATP binding cassette transporter 1 (ABC1) gene polymorphisms and uses thereof for the diagnosis and treatment of lipid disorders, cardiovascular diseases and inflammatory diseases” (Bayer Aktiengesellschaft, priority 2000, dated 2001).

Assays:
[1] = tested on: mononuclear phagocytes; assay: ApoA-I mediated cellular cholesterol efflux (14C-cholesterol, E-LDL loaded monocytes); type: cell-based, Human; details: men and women, percent of basal unstimulated efflux
Description: Cellular Lipid Efflux. Human peripheral blood cells were isolated from lithium-heparin treated blood samples of adult, healthy volunteers. The peripheral blood mononuclear cell fraction was separated by density gradient centrifugation over Ficoll-Histopaque […] (Sigma). Cells positive for CD2, CD7, CD16, CD19 and CD56 were removed by appropriate magnetic beads (Dynal) leaving > 80% pure monocytes. Isolated monocytes were then cultured at a density of 1.5x10^5 cells/mL in polystyrene culture dishes (100x15mm Petri dish, Falcon) in a serum-free macrophage medium (Macrophage-SFM, Gibco Life Technologies) supplemented with 50ng/mL human recombinant M-CSF (R&D Systems). After an overnight incubation cells were cholesterol loaded for 24 hrs by addition of enzymatically modified LDL (E-LDL; 40 µg/ml), which was prepared as previously described (31). […] Lipids were extracted by liquid extraction according to the method of Bligh and Dyer (13). ^3H and ^14C radioactivities of the total lipid extracts were measured by liquid scintillation counting in order to distinguish between ^3H labeled phospholipids and ^14C-cholesterol. Lipid efflux was calculated as percentage of disintegrations per minute (dpm) in medium divided by the sum of dpm recovered from medium and cells. […]

[2] = tested on: mononuclear phagocytes; assay: ApoA-I mediated cellular phospholipid efflux (3H-choline labelled phospholipids); type: cell-based, Human; details: men and women, percent of basal unstimulated efflux
Description: Cellular Lipid Efflux. Human peripheral blood cells were isolated from lithium-heparin treated blood samples of adult, healthy volunteers. The peripheral blood mononuclear cell fraction was separated by density gradient centrifugation over Ficoll-Histopaque […] (Sigma). Cells positive for CD2, CD7, CD16, CD19 and CD56 were removed by appropriate magnetic beads (Dynal) leaving > 80% pure monocytes. Isolated monocytes were then cultured at a density of 1.5x10^5 cells/mL in polystyrene culture dishes (100x15mm Petri dish, Falcon) in a serum-free macrophage medium (Macrophage-SFM, Gibco Life Technologies) supplemented with 50ng/mL human recombinant M-CSF (R&D Systems). After an overnight incubation cells were cholesterol loaded for 24 hrs by addition of enzymatically modified LDL (E-LDL; 40 µg/ml), which was prepared as previously described (31). The incubation medium was further supplemented with ^14C-cholesterol (1.5 µCi/ml) and ^3H-choline (10µCi/ml) in order to label cellular cholesterol and choline containing phospholipids. In a subset of experiments cells were stimulated with 10 µM forskolin during the labeling period. After 24 hrs monocytes were washed and incubated for 17 hrs with or without 10 µg/ml ApoA-I (Sigma) in macrophage medium containing 0.1 % bovine serum albumin and 50ng/mL M-CSF. After incubation the media were removed and centrifuged at 800 x g to precipitate any detached cells. Cells were lysed in 0.2% SDS. Lipids were extracted by liquid extraction according to the method of Bligh and Dyer (13). ^3H and ^14C radioactivities of the total lipid extracts were measured by liquid scintillation counting in order to distinguish between ^3H labeled phospholipids and ^14C-cholesterol. Lipid efflux was calculated as percentage of disintegrations per minute (dpm) in medium divided by the sum of dpm recovered from medium and cells. The ApoA-I specific efflux is expressed a percent of basal unstimulated efflux observed in serum-free macrophage medium without ApoA-I.

[3] = tested on: human fibroblasts; assay: Cell cycle arrest in fibroblasts; type: cell-based; details: result in words
[4] = tested on: IL-1β secretion; assay: IL-1β processing and secretion; type: cell-based; details: result in words
[5] = tested on: neutral sphingomyelinase; assay: Ceramide formation from sphingomyelin; type: cell-based; details: result in words

Caspase I mediated processing of pro-IL-1β [4] | ceramide formation from sphingomyelin mediated by neutral sphingomyelinase [5] | Structure (SMILES) | Cholesterol efflux: ApoA-I [10 µg/ml]+ 24 h pretreatment with forskolin [10 µM] ([1]; 596A/A) | Cholesterol efflux: ApoA-I [10 µg/ml]+ 24 h pretreatment with forskolin [10 µM] ([1]; wt/wt 596G/G, 2589A/A) | Phospholipid efflux: ApoA-I [10 µg/ml]+ 24 h pretreatment with forskolin [10 µM] ([2]; 596A/A) | Phospholipid efflux: ApoA-I [10 µg/ml]+ 24 h pretreatment with forskolin [10 µM] ([2]; 2589G/G) | Phospholipid efflux: ApoA-I [10 µg/ml]+ 24 h pretreatment with forskolin [10 µM] ([2]; wt/wt 596G/G, 2589A/A) | G2-phase cell cycle arrest [3] | release of mature IL-1β [4]
 |  | C=C[C@@]1(C)CC(=O)[C@]2(O)[C@@]3(C)[C@@H](O)CCC(C)(C)[C@@H]3[C@H](O)[C@H](OC(C)=O)[C@@]2(C)O1 [forskolin] | 126.7 ± 37.4% | 121.8 ± 16.4% | 136.7 ± 12.8% | 124.5 ± 25.8% | 135.4 ± 20.2% |  | 
inhibits | inhibits | COc1ccc(Cl)cc1C(=O)NCCc1ccc(S(=O)(=O)NC(=O)NC2CCCCC2)cc1 [glyburide] |  |  |  |  |  | releases human fibroblasts from G2-phase cell cycle arrest | inhibits
